This is an account of results in US8299081B2, “Methods for treating drug resistant cancer” (Novartis AG, priority 2005, dated 2012).

Values after ≈ are worked out from the molar mass of the structure shown. Read-outs that look alike come from different tables or passages of the source. A value given as a limit tells only on which side of the number the result lay.

For data set [1], the system named is L1210 murine leukemia cells (parental line). The settings on record: cited from earlier work.
Data set [2] has as its system melphalan-resistant L1210 murine leukemia cells. The settings on record: cited from earlier work.
The conditions of data set [3]: human, in vivo. On the procedure: (§1) Phase I dose escalating multi-center open label studies were conducted to evaluate the safety, pharmacokinetics, and pharmacodynamics of Compound 1 in subjects with advanced solid malignancies. Further primary objectives of the studies included: 1) determining the Maximum Tolerated Dose (MTD); 2) identifying Dose Limiting Toxicity (DLT); and 3) assessing safety provil in subject with advanced solid tumors. Secondary objectives of the study included: 1) evaluating pharmacokinetics; 2) evaluating pharmacodynamics in plasma, peripheral blood lymphocytes, urine, and tumor cells; 3) recommending dose and schedule for future investigations; and 4) determining evidence of anti-tumor activity (RECIST). Details regarding this study are set forth below […]

Data set [4] relates to advanced solid malignancies. Nature of the data set: Phase I dose escalating study: anti-tumor activity. Type of data set: in vivo, human. The procedure: as §1
Another data set relates to MV4;11 tumors. Nature of the data set: Subcutaneous MV4;11 tumor xenograft model. It counts as in vivo, SCID-NOD mice.
The target of the next data set is P-glycoprotein (Homo sapiens, UniProt P08183). The experiment in a line: P-GP substrate status. Type of data set: in vitro ADME.
A further data set concerns MV4;11 cells. Nature of the data set: Intravenous bone marrow (BM) engraftment model MV4;11. Type of data set: in vivo, SCID-NOD mice. On the procedure: For processing of bone marrow (BM) cells from the mouse MV4;11 engraftment model, femurs were purged with cold saline and red blood cells lysed with FACS lysis buffer (Becton Dickinson). Percent engraftment of human leukemic cells in mouse BM was determined by staining with anti-human HLA-A,B,C-FITC (vs. isotype-matched antibody-FITC control) (BD Pharmingen).
[…]. […] Mice were monitored daily and were euthanized when moribund or early signs of loss of hind limb motility. Increased life span (ILS) of treated mice was calculated as a percent increase in median survival time (MST) vs. vehicle treated control mice.
. In this model, MV4;11 cells disseminate to the bone marrow (BM), pathologically mimicking a disease pattern similar to human leukemia. […]. Histological analyses and flow cytometry were used to quantify the % engraftment of MV4;11 cells in BM (FIG. 21). In flow cytometric analyses, human MV4;11 cells were identified in mouse BM with an anti-human HLA-A,B,C antibody which binds to an epitope on human MHCl. In vehicle-treated mice, approximately 2-19% of total isolated BM cells consisted of engrafted MV4;11 cells (day 51, FIG. 21-a). This was also corroborated by immunohistochemistry with an antibody to human mitochondria which stains MV4;11 cells identifying the human cells in the mouse BM matrix (FIG. 21-b,c). […].

In another data set the test system is RS4;11 tumors. Nature of the data set: Subcutaneous RS4;11 tumor xenograft model. Type of data set: in vivo, SCID-NOD mice.
Data set [5] deals with KM12L4A human colon tumor xenografts. Nature of the data set: KM12L4A human colon tumor xenografts. The settings on record: large established tumors 500 or 1000 mm^3, dosed daily. Type of data set: in vivo, nude mice. The text has this:
These compounds have also shown oral activity in a variety of angiogenesis tumor and metastases animal models.
(In xenograft studies the graft and the host belong to different species.)

The next data set deals with pSTAT5 in MV4;11 tumors. Nature of the data set: Target modulation in vivo: pSTAT5 in MV4;11 tumors. The settings on record: Mus musculus.
Details of data set [6]: species or system human. The settings on record: in vivo. The procedure:
Phase I dose escalating multi-center open label studies were conducted to evaluate the safety, pharmacokinetics, and pharmacodynamics of Compound 1 in subjects with advanced solid malignancies. Further primary objectives of the studies included: 1) determining the Maximum Tolerated Dose (MTD); 2) identifying Dose Limiting Toxicity (DLT); and 3) assessing safety provil in subject with advanced solid tumors. Secondary objectives of the study included: 1) evaluating pharmacokinetics; 2) evaluating pharmacodynamics in plasma, peripheral blood lymphocytes, urine, and tumor cells; 3) recommending dose and schedule for future investigations; and 4) determining evidence of anti-tumor activity (RECIST). Details regarding this study are set forth below
[…]. Plasma exposure in the 100 mg dose group approaches the range where preclinical efficacy has been noted.

Setting [7] is: MV4;11, 30 mg/kg/d, dose-response study.
Setting [8] is: large MV4;11 tumors 300, 500 or 1000 mm^3, 30 mg/kg/d, n=27.

Sequence of P-glycoprotein (P08183 whole entry): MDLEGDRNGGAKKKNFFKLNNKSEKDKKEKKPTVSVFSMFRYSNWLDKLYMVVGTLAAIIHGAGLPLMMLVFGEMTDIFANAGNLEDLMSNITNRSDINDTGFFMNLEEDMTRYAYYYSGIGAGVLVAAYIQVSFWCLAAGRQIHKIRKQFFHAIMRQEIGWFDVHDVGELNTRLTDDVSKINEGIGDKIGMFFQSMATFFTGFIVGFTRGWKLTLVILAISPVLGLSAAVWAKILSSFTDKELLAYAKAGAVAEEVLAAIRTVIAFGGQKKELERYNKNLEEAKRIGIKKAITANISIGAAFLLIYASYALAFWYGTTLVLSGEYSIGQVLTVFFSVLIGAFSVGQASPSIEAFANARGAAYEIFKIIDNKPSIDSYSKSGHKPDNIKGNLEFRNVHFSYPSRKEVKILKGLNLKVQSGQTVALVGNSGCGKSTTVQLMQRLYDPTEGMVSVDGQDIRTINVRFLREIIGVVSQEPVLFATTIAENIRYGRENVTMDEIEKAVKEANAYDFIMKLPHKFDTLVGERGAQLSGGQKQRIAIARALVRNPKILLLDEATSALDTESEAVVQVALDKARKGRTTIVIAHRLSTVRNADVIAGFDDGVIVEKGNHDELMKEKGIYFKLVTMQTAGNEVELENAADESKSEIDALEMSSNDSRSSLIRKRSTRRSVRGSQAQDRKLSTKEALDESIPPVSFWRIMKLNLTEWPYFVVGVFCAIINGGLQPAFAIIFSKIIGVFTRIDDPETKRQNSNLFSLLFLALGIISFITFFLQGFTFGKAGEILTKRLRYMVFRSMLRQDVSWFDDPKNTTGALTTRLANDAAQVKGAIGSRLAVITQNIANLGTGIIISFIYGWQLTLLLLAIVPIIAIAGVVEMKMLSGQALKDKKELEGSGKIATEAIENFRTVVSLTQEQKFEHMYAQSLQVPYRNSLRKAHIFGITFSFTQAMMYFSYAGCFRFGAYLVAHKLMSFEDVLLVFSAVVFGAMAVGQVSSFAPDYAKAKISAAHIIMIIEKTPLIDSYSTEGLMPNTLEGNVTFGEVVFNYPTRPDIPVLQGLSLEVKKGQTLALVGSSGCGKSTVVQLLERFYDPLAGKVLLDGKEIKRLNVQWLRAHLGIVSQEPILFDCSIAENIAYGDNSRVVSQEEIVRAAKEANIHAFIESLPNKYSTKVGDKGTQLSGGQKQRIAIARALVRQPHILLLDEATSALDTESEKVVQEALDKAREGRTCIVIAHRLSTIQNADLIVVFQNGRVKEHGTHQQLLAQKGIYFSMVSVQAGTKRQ

For the compound `C=C(Br)C(=O)Nc1cc(C(=O)Nc2cc(C(=O)Nc3cc(C(=O)Nc4cc(C(=O)NCCNC(=N)N)n(C)c4)n(C)c3)n(C)c2)n(C)c1` [Brostallicin], the IC50 is 1.45 ng/mL (≈ 2 nM) in data set [1] and 0.46 ng/mL (≈ 0.636 nM) in data set [2] (melphalan-resistant L1210). Also, the “higher activity in melphalan-resistant L1210 than in the parental line” value in [2] is recorded as 3 fold.

On to `CN1CCN(c2ccc3nc(-c4c(N)c5c(F)cccc5[nH]c4=O)[nH]c3c2)CC1` [Compound 1, 4-amino-5-fluoro-3-[6-(4-methyl-piperazin-1-yl)-1H-benzimidazol-2-yl]-1H-quinolin-2-one], for which, in data set [3], the “Anorexia, drug-related clinical adverse events ≥G2” value was 2 and the “Hypertension (DLT), drug-related clinical adverse events ≥G2” value was 2 (1 G3). Also, in [4] (7/22 patients), the “patients with stable disease (SD) at their first evaluation” value is recorded as 32%. For the same compound, the “patients with SD for greater than 4 months” value in data set [4] (in vivo) turned out to be 4 patients. Moreover, the “tumor growth inhibition (TGI)” value in the data set with MV4;11 tumors (MV4;11, 1 mg/kg/d oral, after 2 weeks of dosing) was determined as 23%. Also, the “number of CR” value in the data set on MV4;11 tumors (MV4;11, 30 mg/kg daily, schedule study) was determined as 1. The compound further showed a TGI in the data set on MV4;11 tumors (MV4;11, 30 mg/kg, intermittent dosage regimens) greater than 94%. Further, in the data set with MV4;11 tumors (setting [7]), the “complete responders (CR)” value is on record as 1 and the “tumor responses (regression)” value amounted to 9110. The “PRs durable for 40 days after cessation of dosing” value with MV4;11 tumors (MV4;11, after 50 days of 30 mg/kg/d) is recorded as “approximately 50%”. For the same compound, in the data set with MV4;11 tumors (MV4;11 tumors), the “doses giving significant tumor growth inhibition” value was greater than 5 mg/kg/day. Moreover, in the data set on MV4;11 tumors (MV4;11 tumors, p<0.01 vs. Vehicle), the “minimum statistically effective dose” value is 1 mg/kg/day. In the data set on MV4;11 tumors (setting [8]), the complete responses came to 15%, the “minor responses or remained stable” value came to 15% and the partial responses was determined as 70%. Also, the “time until tumor regressions were evident” value with MV4;11 tumors (large MV4;11 tumors, 30 mg/kg/d) is 3 to 5 days. In the data set on MV4;11 tumors (ten re-grown MV4;11 tumors re-treated with 30 mg/kg/d for 60 days), the “number of CR, second cycle” value amounted to 2. On P-glycoprotein, the P-GP substrate entry is “not a P-GP substrate”. In addition, in the data set on MV4;11 cells (20 mg/kg cyclic, 7 days on/7 days off, 5 cycles), the MST is given as 118 days. Moreover, in the data set on MV4;11 cells (20 mg/kg daily over 25 days, flow cytometry), the “MV4;11 cells in BM (leukemic burden)” value is reported as less than 1%. The “increased life span (ILS)” value in the data set with MV4;11 cells (20 mg/kg daily, vs vehicle) came out at 163%. In the data set on RS4;11 tumors (100 mg/kg/d, day 8), this compound registered a TGI of 48%. The compound further returned a minimum effective dose with RS4;11 tumors (day 8, p<0.01) of 100 mg/kg/day. Moreover, the “treated animals with regression and/or disease stabilization” value in data set [5] was 90-100%. In addition, in the data set on pSTAT5 in MV4;11 tumors (MV4-11, read-out: inhibition of STAT5 phosphorylation in tumors, 10 mg/kg/d x 5 days, 8 hour post dose (maximum)), the inhibition at 10 mg/kg stood at 90%. Moreover, in the data set on pSTAT5 in MV4;11 tumors (MV4-11, read-out: inhibition of STAT5 phosphorylation in tumors, 10 mg/kg/d x 5 days, 24 hours), the inhibition at 10 mg/kg turned out to be 85%. For the same compound, the inhibition at 10 mg/kg with pSTAT5 in MV4;11 tumors (MV4-11, read-out: inhibition of p-STAT5 in tumors, 10 mg/kg/d x 5 days, 48 hours post dose) amounted to 60%. The “plasma exposure (Cmax, AUC) versus dose” value in [6] is listed as “increases proportionally with dose”.

As usually defined, the IC50 is the midpoint of a concentration-inhibition curve. One may read the TGI as how far tumour growth fell short of that in controls. A lower TGI goes with a weaker effect on the tumour.
